The results in this text go back to patent publication US20240217969A1, “SUBSTITUTED PYRROLE CARBOXAMIDES, PROCESS FOR THEIR PREPARATION AND THEIR USE AS KINASE INHIBITORS” (priority 2021, published 2024).

Molecules are shown by their SMILES.

Broadly, the IC50 is the concentration that gives 50% inhibition. Lower therefore signals greater potency in that assay.

One series deals with Cdc7 (Homo sapiens, UniProt O00311). Put plainly: Cdc7 biochemical assay, ADPGlo assay format. The protocol: The biochemical activity of compounds was determined by incubation with specific enzymes and substrate, followed by quantification of the ADP product. Compounds were 4-fold serially diluted from 10 to 0.0006 uM; in the case of the pre-incubation step, the enzyme is added to the inhibitor solution and the mixture is left to incubate for 30 minutes at room temperature (r.t.). The reaction started with the addition of the substrate and the ATP, when the enzyme was already present in the preincubation step, or substrate, ATP and enzyme when the preincubation step was not present. The concentrations of ATP, substrate and reaction buffer are described above. The assays were run in a robotized format on 384-well plates. […] At the end of the incubation time, an equal volume of ADPGlo Reagent 1 (Promega) was added to stop the reaction and to remove all unreacted ATP. After 60 minutes, an equal volume of ADPGlo Reagent 2 (Promega) was added to convert ADP in ATP and then ATP in light by luciferase reaction.
y=bottom+(top−bottom)/(1+10^((log IC50−x)*slope))
where x is the logarithm of the inhibitor concentration, y is the response; y starts at bottom and goes to top with a sigmoid shape.

Series [1] has as its target T1, aldehyde oxidases (human liver cytosol) (Homo sapiens, UniProt Q06278).
T1 construct: added to human liver cytosol (1 mg/mL protein content); from tissue; host or cells: human liver cytosol
The class given is in vitro ADME. The following applies: human liver cytosol 1 mg/mL, 1 μM compound; for HLC % remaining (1 h incub.): 60 min incubation; for HLC % remaining (1 h incub.) / HLC T½ min: pH 7.4, 37° C.; for IntCl (Intrinsic Clearance): half-life approach. The protocol:
The aldehyde oxidases involvement in the metabolism of the test item was determined by comparison of the intrinsic clearance values in the presence and absence of aldehyde oxidases inhibitor hydralazine hydrochloride. The purpose of the study was to evaluate the in-vitro intrinsic clearance, the metabolic stability towards aldehyde oxidases (AO) activity and the metabolism of the test item in human liver cytosol. The intrinsic clearance was determined using the half-life approach, by measuring the substrate disappearance along 60 minutes incubation with human liver cytosol. Incubations were performed at the concentration of 1 μM. […] HPLC-MS/MS was used for the detection of the compound left over during the incubation. For intrinsic clearance determination samples were analyzed by high performance liquid chromatography (HPLC) on-line with mass spectrometry (MS) equipment. For the determination of aldehyde oxidases activity (i.e. positive control) of cytosol, phthalazine was incubated with human liver cytosol in presence and absence of the aldehyde oxidases inhibitor. On the day of the incubation, the compound was dissolved in DMSO at the concentration of 10 mM. Aliquots of this solution were added to the test system to a final concentration of […]. The percentage of DMSO in the final incubates was […]. Aliquots of the test item were added to human liver cytosol (1 mg/mL protein content) in Dulbecco's buffer, pH 7.4 at 37° C., to reach final concentration of 1 μM. Incubations were performed in a 48-well plate, under shaking. At 0, 5, 10, 20, 30 and 60 minutes incubation, 50 μL aliquots of the incubate were sampled, poured in 80 μL of ice-cold acetonitrile and 20 μL of 1 μM warfarin in acetonitrile (injection control) and centrifuged at 2500 rpm for 20 minutes. The supernatant was immediately analysed by LC-MS/MS.
The test item was incubated in parallel, in duplicate, at the concentration of 1 μM in Dulbecco's buffer, pH 7.4 for 60 min at 37° C. in the presence of 10 μM hydralazine hydrochloride (aldehyde oxidases inhibitor).
The chemical stability of the test item was checked in parallel by incubating the test item in single at the concentration of 1 μM in Dulbecco's buffer, pH 7.4 for 60 min at 37° C. (negative control).
The intrinsic clearance (CLint) was calculated using the half-life approach. Half-life and CLint were determined from the concentration (area counts) remaining at the different sampling points using the LC-MS/MS method. By plotting the natural logarithmic area of the compound remaining against the time, the slope was calculated by linear regression analysis and converted into the half-life (t½) and CLint expressed as μL/min/mg protein according to the following formulae: […]

Sequence of Cdc7 (O00311 whole entry): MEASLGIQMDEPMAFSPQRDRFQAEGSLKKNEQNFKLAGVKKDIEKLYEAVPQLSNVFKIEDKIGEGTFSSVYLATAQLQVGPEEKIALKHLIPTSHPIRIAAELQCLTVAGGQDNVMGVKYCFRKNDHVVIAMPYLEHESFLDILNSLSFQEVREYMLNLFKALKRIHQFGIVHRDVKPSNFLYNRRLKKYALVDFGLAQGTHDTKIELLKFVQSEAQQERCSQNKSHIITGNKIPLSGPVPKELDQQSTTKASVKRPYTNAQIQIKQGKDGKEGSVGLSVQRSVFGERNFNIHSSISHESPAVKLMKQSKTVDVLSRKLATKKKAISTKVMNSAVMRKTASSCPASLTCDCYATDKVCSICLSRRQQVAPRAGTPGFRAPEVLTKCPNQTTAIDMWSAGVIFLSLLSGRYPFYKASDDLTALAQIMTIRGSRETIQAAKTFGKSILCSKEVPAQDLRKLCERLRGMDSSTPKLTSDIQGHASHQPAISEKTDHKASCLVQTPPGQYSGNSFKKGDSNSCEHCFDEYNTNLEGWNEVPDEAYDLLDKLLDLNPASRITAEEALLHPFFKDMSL
Sequence of Cdc7 (Q9UBU7 whole entry partner): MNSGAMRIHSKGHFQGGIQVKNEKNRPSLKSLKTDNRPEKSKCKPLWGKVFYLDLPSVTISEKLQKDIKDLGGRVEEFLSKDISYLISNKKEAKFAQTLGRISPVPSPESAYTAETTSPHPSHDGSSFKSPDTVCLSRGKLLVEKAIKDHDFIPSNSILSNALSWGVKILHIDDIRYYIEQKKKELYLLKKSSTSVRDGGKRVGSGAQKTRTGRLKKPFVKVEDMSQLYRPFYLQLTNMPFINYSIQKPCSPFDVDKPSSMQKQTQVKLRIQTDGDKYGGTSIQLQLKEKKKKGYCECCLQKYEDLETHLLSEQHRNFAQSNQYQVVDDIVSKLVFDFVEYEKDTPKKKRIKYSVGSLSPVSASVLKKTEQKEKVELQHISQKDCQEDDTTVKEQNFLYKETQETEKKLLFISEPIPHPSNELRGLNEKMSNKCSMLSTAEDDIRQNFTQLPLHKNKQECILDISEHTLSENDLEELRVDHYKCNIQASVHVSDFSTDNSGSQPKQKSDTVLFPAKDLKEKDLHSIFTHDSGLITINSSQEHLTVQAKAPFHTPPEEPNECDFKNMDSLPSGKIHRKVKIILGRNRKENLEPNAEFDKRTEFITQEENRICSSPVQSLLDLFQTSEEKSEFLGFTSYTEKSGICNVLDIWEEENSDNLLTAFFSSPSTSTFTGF
T1 sequence (Q06278 whole entry): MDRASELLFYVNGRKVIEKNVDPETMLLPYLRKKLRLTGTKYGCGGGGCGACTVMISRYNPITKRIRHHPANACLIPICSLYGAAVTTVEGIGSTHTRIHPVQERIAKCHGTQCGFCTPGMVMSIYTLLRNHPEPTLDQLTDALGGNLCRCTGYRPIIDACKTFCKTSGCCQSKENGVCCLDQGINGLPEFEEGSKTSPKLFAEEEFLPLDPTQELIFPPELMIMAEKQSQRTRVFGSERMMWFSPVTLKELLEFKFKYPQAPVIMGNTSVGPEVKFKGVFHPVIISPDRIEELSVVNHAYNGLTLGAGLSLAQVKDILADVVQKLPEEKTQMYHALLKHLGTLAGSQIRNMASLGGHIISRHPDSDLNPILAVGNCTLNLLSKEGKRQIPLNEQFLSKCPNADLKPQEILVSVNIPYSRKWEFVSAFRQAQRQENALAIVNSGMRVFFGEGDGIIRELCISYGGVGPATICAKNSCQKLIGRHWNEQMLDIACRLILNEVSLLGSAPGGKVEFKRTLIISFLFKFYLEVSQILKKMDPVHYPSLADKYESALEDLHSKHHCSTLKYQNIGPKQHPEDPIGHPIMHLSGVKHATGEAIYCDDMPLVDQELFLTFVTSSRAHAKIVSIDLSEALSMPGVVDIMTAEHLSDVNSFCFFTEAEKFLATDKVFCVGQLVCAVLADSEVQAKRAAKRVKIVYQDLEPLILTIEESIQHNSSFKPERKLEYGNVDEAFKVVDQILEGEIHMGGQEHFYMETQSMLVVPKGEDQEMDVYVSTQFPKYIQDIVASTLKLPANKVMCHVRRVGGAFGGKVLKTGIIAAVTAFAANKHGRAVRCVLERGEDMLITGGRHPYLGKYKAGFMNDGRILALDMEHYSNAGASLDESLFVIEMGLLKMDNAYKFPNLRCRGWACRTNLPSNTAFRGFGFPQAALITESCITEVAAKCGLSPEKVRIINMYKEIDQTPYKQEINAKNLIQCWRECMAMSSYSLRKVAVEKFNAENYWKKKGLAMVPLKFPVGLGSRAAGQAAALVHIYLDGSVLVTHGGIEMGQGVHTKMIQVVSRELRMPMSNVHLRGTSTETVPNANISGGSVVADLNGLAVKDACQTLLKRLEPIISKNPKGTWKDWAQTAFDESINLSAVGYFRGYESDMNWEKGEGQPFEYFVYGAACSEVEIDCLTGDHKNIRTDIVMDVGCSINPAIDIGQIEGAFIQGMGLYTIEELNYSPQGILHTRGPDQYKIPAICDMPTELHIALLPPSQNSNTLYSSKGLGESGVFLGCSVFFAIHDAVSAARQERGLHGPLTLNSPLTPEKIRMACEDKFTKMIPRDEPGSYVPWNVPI

As to `NC(=O)c1cc(-c2ccnc3[nH]ccc23)[nH]c1-c1ccc(OC(F)F)cc1Cl` [comp 17, 2-[2-chloro-4-(difluoromethoxy)phenyl]-5-(1H-pyrrolo[2,3-b]pyridin-4-yl)-1H-pyrrole-3-carboxamide], on Cdc7, the IC50 is 1 nM.
The same measure, in the same setting: as for `Cc1ccc(-c2[nH]c(-c3ccnc4[nH]ccc34)cc2C(=O)NCc2ccco2)c(F)c1` [comp 27, 2-(2-fluoro-4-methylphenyl)-N-(furan-2-ylmethyl)-5-(1H-pyrrolo[2,3-b]pyridin-4-yl)-1H-pyrrole-3-carboxamide], the figure is 61 nM.
Consider `Cc1ccc(-c2[nH]c(-c3c[nH]nc3C)cc2C(N)=O)c(F)c1` [compound 52, 2-(2-fluoro-4-methylphenyl)-5-(3-methyl-1H-pyrazol-4-yl)-1H-pyrrole-3-carboxamide], for which, in series [1], the “HLC % remaining (1 h incub.)” value amounted to 100%, the “IntCl (Intrinsic Clearance)” value is given as 2.9 μL/min/mg protein and the “HLC T½ min” value was found to be 3.98 h.
As to `Cc1ccc(-c2[nH]c(-c3ccnc4[nH]ccc34)cc2C(N)=O)c(F)c1` [compound 53, 2-(2-fluoro-4-methylphenyl)-5-(1H-pyrrolo[2,3-b]pyridin-4-yl)-1H-pyrrole-3-carboxamide], in series [1], the “HLC % remaining (1 h incub.)” value stood at 100%, the “IntCl (Intrinsic Clearance)” value came to 2.9 μL/min/mg protein and the “HLC T½ min” value is 3.98 h.
With `NC(=O)c1cc(-c2ccnc3[nH]ncc23)[nH]c1-c1ccc(Cl)cc1Cl` [compound 47, 2-(2,4-dichlorophenyl)-5-(1H-pyrazolo[3,4-b]pyridin-4-yl)-1H-pyrrole-3-carboxamide], the midpoint of inhibition against Cdc7, the IC50, lay at 4 nM.
Regarding `Cc1ccc(-c2[nH]c(-c3ccnc4[nH]ccc34)c(I)c2C(N)=O)c(F)c1` [comp 38, 2-(2-fluoro-4-methylphenyl)-4-iodo-5-(1H-pyrrolo[2,3-b]pyridin-4-yl)-1H-pyrrole-3-carboxamide], the IC50 on Cdc7 is 101 nM.
Still for that read-out and setting: as for `NC(=O)c1cc(-c2[nH]c(-c3ccnc4[nH]ccc34)cc2C(N)=O)ccc1F` [comp 22, 2-(3-carbamoyl-4-fluorophenyl)-5-(1H-pyrrolo[2,3-b]pyridin-4-yl)-1H-pyrrole-3-carboxamide], the figure is 27 nM; as for `Cc1ccc(-c2[nH]c(-c3ccnc4[nH]ccc34)c(Br)c2C(N)=O)c(F)c1` [comp 39, 2-(2-fluoro-4-methylphenyl)-4-bromo-5-(1H-pyrrolo[2,3-b]pyridin-4-yl)-1H-pyrrole-3-carboxamide], 159 nM; as for `Cc1ccc(-c2[nH]c(-c3ccnc4[nH]ccc34)cc2C(N)=O)c2ccccc12` [comp 32, 2-(4-methylnaphthalen-1-yl)-5-(1H-pyrrolo[2,3-b]pyridin-4-yl)-1H-pyrrole-3-carboxamide], 17 nM.
`NC(=O)c1cc(-c2ccnc3[nH]ccc23)[nH]c1-c1csc2ccccc12` [comp 35, 2-(1-benzothiophen-3-yl)-5-(1H-pyrrolo[2,3-b]pyridin-4-yl)-1H-pyrrole-3-carboxamide]: 7 nM corresponded to half-maximal inhibition against Cdc7 (IC50).
At Cdc7, `NC(=O)c1cc(-c2ccnc3[nH]ccc23)[nH]c1-c1ccc(F)c(F)c1` [comp 19, 2-(3,4-difluorophenyl)-5-(1H-pyrrolo[2,3-b]pyridin-4-yl)-1H-pyrrole-3-carboxamide] yielded an IC50 of 15 nM.
On the same count and under the same terms, as for `NC(=O)c1cc(-c2ccnc3[nH]ccc23)[nH]c1-c1ccc2c(c1)OCCO2` [comp 36, 2-(2,3-dihydro-1,4-benzodioxin-6-yl)-5-(1H-pyrrolo[2,3-b]pyridin-4-yl)-1H-pyrrole-3-carboxamide], the figure is 10 nM; as for `CCn1c(-c2ccnc3[nH]ccc23)cc(C(N)=O)c1-c1ccc(Cl)cc1Cl` [compound 57, 2-(2,4-dichlorophenyl)-1-ethyl-5-(1H-pyrrolo[2,3-b]pyridin-4-yl)-1H-pyrrole-3-carboxamide], 17 nM.
The same measure, in the same setting: as for `NC(=O)c1cc(-c2ccnc3[nH]ccc23)[nH]c1-c1cccc2c1sc1ccccc12` [comp 31, 2-(dibenzo[b,d]thiophen-4-yl)-5-(1H-pyrrolo[2,3-b]pyridin-4-yl)-1H-pyrrole-3-carboxamide], the figure is 759 nM.
Still for that read-out and setting: then `Cc1ccc(-c2[nH]c(-c3ccnc4[nH]ccc34)cc2C(N)=O)cc1[N+](=O)[O-]` [comp 21, 2-(4-methyl-3-nitrophenyl)-5-(1H-pyrrolo[2,3-b]pyridin-4-yl)-1H-pyrrole-3-carboxamide], with 34 nM.
On Cdc7, `Cc1ccc(-c2[nH]c(-c3ccnc4[nH]ccc34)cc2C(=O)N[C@H]2CCCC[C@H]2N)c(F)c1` [comp 26, N-[(1S,2R)-2-aminocyclohexyl]-2-(2-fluoro-4-methylphenyl)-5-(1H-pyrrolo[2,3-b]pyridin-4-yl)-1H-pyrrole-3-carboxamide] showed a half-maximal inhibitory concentration (IC50) of 12 nM.
Consider `NC(=O)c1cc(-c2ccnc3[nH]ccc23)[nH]c1-c1ccc(OC(F)(F)F)cc1` [comp 34, 5-(1H-pyrrolo[2,3-b]pyridin-4-yl)-2-[4-(trifluoromethoxy)phenyl]-1H-pyrrole-3-carboxamide], for which it took 42 nM to reach half-maximal inhibition at Cdc7 (IC50).
Still for that read-out and setting: as for `Cc1cc(F)ccc1-c1[nH]c(-c2ccnc3[nH]ccc23)cc1C(N)=O` [comp 37, 2-(4-fluoro-2-methylphenyl)-5-(1H-pyrrolo[2,3-b]pyridin-4-yl)-1H-pyrrole-3-carboxamide], the figure is 2 nM; as for `NC(=O)c1cc(-c2ccnc3[nH]ccc23)n(CCC(F)(F)F)c1-c1ccc(Cl)cc1Cl` [compound 55, 2-(2,4-dichlorophenyl)-5-(1H-pyrrolo[2,3-b]pyridin-4-yl)-1-(3,3,3-trifluoropropyl)-1H-pyrrole-3-carboxamide], 996 nM.
As to `NC(=O)c1cc(-c2csc(N)n2)[nH]c1-c1ccc(Cl)cc1Cl` [compound 45, 5-(2-amino-1,3-thiazol-4-yl)-2-(2,4-dichlorophenyl)-1H-pyrrole-3-carboxamide], in series [1], the “HLC % remaining (1 h incub.)” value stood at 98%, the “IntCl (Intrinsic Clearance)” value is 2.9 μL/min/mg protein and the “HLC T½ min” value came to 3.98 h.
In turn, `Cc1ccc(-c2[nH]c(-c3ccnc4[nH]ccc34)cc2C(=O)NCCF)c(F)c1` [comp 28, N-(fluoroethyl)-2-(2-fluoro-4-methylphenyl)-5-(1H-pyrrolo[2,3-b]pyridin-4-yl)-1H-pyrrole-3-carboxamide] yielded an IC50 at Cdc7 of 67 nM.
As to `NC(=O)c1cc(-c2ccnc3[nH]ccc23)n(CCO)c1-c1ccc(Cl)cc1Cl` [compound 54, 2-(2,4-dichlorophenyl)-1-(2-hydroxyethyl)-5-(1H-pyrrolo[2,3-b]pyridin-4-yl)-1H-pyrrole-3-carboxamide], the IC50 against Cdc7 came out at 418 nM.
At Cdc7, `NC(=O)c1cc(-c2ccnc3[nH]ccc23)[nH]c1-c1cccc(F)c1` [comp 33, 2-(3-fluorophenyl)-5-(1H-pyrrolo[2,3-b]pyridin-4-yl)-1H-pyrrole-3-carboxamide] displayed a half-maximal inhibitory concentration (IC50) of 14 nM.
On the same count and under the same terms, as for `Cc1ccc(-c2[nH]c(-c3ccnc4[nH]ccc34)cc2C(=O)NC2CCN(C)CC2)c(F)c1` [comp 30, 2-(2-fluoro-4-methylphenyl)-N-(1-methylpiperidin-4-yl)-5-(1H-pyrrolo[2,3-b]pyridin-4-yl)-1H-pyrrole-3-carboxamide], the figure is 3130 nM.
`NC(=O)c1cc(-c2ccnc3[nH]ccc23)[nH]c1-c1ccc(Cl)c(Cl)c1` [comp 18, 2-(3,4-dichlorophenyl)-5-(1H-pyrrolo[2,3-b]pyridin-4-yl)-1H-pyrrole-3-carboxamide] displayed an IC50 at Cdc7 of 31 nM.
On the same count and under the same terms, then `COc1ccc(-c2[nH]c(-c3ccnc4[nH]ccc34)cc2C(N)=O)c(C(F)(F)F)c1` [comp 16, 2-[4-methoxy-2-(trifluoromethyl)phenyl]-5-(1H-pyrrolo[2,3-b]pyridin-4-yl)-1H-pyrrole-3-carboxamide], with 6 nM.
